Consider 5 compounds from article PMC3260554 (Nature Neuroscience, 2010).

Read-outs that look alike come from different tables or passages of the source.

One data set concerns Fos protein. As to the kind of experiment: Formalin-induced spinal cord Fos protein expression. The format is in vivo, Sprague-Dawley rats.
A further data set has as its system mice. As to the kind of experiment: Acetic acid-induced writhing. The format is in vivo, Swiss Webster mice.
Data set [1] concerns FAAH.
Data set [2] has as its target T1, FAAH (Mus musculus, UniProt O08914).
T1 sequence (O08914 1-579): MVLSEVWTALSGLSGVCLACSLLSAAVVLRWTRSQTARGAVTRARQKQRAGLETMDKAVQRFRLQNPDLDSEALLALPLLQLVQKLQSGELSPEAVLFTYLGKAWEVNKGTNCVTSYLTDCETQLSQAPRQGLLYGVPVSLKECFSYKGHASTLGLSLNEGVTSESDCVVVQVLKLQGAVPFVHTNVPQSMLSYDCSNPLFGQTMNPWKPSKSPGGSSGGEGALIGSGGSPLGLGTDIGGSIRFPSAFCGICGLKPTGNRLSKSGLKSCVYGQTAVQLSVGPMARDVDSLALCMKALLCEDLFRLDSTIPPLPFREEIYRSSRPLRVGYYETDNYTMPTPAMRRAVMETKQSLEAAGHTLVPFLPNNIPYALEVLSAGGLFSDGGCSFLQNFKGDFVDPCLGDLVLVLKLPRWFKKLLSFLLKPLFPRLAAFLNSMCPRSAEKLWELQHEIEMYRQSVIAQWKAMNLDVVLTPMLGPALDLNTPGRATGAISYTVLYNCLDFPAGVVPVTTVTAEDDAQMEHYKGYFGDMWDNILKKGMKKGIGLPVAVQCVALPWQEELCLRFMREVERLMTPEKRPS
It is filed as in vivo, Swiss Webster mice.

Data set [3] in a line: Temporal tissue distribution of URB937 in liver, brain and serum. It is filed as in vivo, Swiss Webster mice. Particulars: 1 mg-kg^−1, i.p., mice.
Data set [4] is described as follows: Drug distribution coefficient n-octanol / buffer pH 7.4. The note with it: n-octanol / aqueous buffer pH 7.4, 25±1°C, mean±s.e.m, n = 3. It is filed as physicochemical.
The subject of data set [5] is human epithelial TC7 cells. In words: Permeability and efflux ratio through polarized TC7 monolayers. It is filed as in vitro ADME. Particulars: mean of 2 independent experiments.
[6] abbreviates: ex vivo 1 h after injection, 1 mg-kg^−1 i.p., Swiss Webster mice, n = 3.
Setting [7] is: s.c., mice, 1 h after injection.

Consider `Cc1c(C(=O)NN2CCCCC2)nn(-c2ccc(Cl)cc2Cl)c1-c1ccc(Cl)cc1` [rimonabant], for which the “Effect on Fos levels when administered without URB937” value in the data set on Fos protein (2 mg-kg^−1, i.p., rats) is on record as “did not significantly alter Fos levels”. The “Effect of antagonist on URB937 suppression of Fos expression” value with Fos protein (rimonabant 2 mg-kg^−1, i.p., with URB937) is given as “prevented”.

Take `COc1ccc2c(c1)c(CC(=O)O)c(C)n2C(=O)c1ccc(Cl)cc1` [indomethacin]: the “Effect on acetic acid-induced writhing relative to URB937” value in the data set on mice (1 mg-kg^−1, s.c., 1 h before test) is listed as “comparable in efficacy”.

As for `COc1ccc(C(=O)c2c(C)n(CCN3CCOCC3)c3cc(I)ccc23)cc1` [AM630], in the data set with mice (antagonist 1 mg-kg^−1, s.c., with URB937 1 mg-kg^−1 s.c.), the “Effect of antagonist on the antinociceptive effect of URB937 (writhing)” value is recorded as “ineffective”.

`NC(=O)c1cccc(-c2cccc(OC(=O)NC3CCCCC3)c2)c1` [Compound 1a, cyclohexylcarbamic acid 3′-carbamoylbiphenyl-3-yl ester, reference compound]: the “Effect on brain FAAH activity” value with FAAH [1] (in vivo, ip) is on record as “markedly reduced”.

`NC(=O)c1cccc(-c2cc(OC(=O)NC3CCCCC3)ccc2O)c1` [Compound 1b]: the “Time course of peripheral FAAH inhibition in vivo” value at FAAH [2] (Supplementary Figure 1) was “rapidly and lastingly”. Besides, on FAAH [2] (setting [6]), the “FAAH Inhibition in brain” value was −3.0 ± 8.0% and the “FAAH Inhibition in liver” value is on record as 91.7 ± 0.7%. Also, at FAAH [2] (setting [7]), the “ED50 for FAAH inhibition in brain” value is 40 mg/kg and the “ED50 for FAAH inhibition in liver” value worked out at 0.2 mg/kg. Also, in data set [3], the “Distribution in blood and liver after systemic administration” value was “distributed rapidly in blood and liver”; the “Presence in brain tissue after systemic administration” value is recorded as “undetectable”. Besides, in data set [4], the “distribution coefficient, LogDoct,pH7.4” value turned out to be 3.03±0.01. For the same compound, in data set [5], the “% recovery A–B” value is 83%, the “% recovery B-A” value is 95% and the “permeability B-A” value was found to be 371 nm/s. The “Effect on brain FAAH activity” value in the data set with FAAH [1] (25 mg-kg^−1, i.p.) is “no effect”.
